Data reported in patent publication US20240299345A1, “GINKGOLIDE B AND ITS DERIVATIVES FOR INHIBITING AND/OR REVERSING AGING” (CHINA MEDICAL UNIVERSITY, priority 2023, published 2024).

Legend:
[1] = tested on: aged M1 macrophages, MPD C2C12, MPD C2C12-derived myotubes; experiment: Inflammatory cytokine expression in aged cells under culture conditions; type: cell-based, mouse; details: GB 5 mg/L for 48 hr
Source text: C2C12 myoblast cell line (#CRL-1772TM, ATCC, Manassas, VA, USA) was expanded in high-glucose DMEM (#D7777, Sigma-Aldrich) with 10% FBS (#10270106, Gibco, Waltham, MA, USA) and 1% PSG (#10378016, Gibco). Passage 15-20 C2C12 was considered as multiple population doublings C2C12. Subconfluent C2C12 was differentiated to myotubes by myogenic induction medium, high-glucose DMEM (Sigma-Aldrich) containing 2% horse scrum (#16050122, Gibco) for 5 days. Aged bone-marrow monocytes were isolated from 20-month-old female C57BL/6 mice and then differentiated into macrophages in RPMI 1640 (#11875085, Gibco) supplemented with 10% FBS and 20 ng/ml M-CSF (#315-02, PeproTech, Cranbury, NJ, USA). Inflammatory MI macrophages were induced by 45 ng/mL IFN-γ (#485-MI-100, R&D Systems, Minneapolis, MN, USA) +100 ng/mL LPS (#L4391, Sigma-Aldrich). The indicative cells were then treated with or without GB (5 mg/L) for 48 hr. […]
(§1) RNAs were purified by using the TRIzol® (#15596018, Invitrogen) and chloroform method (#C7559, Sigma-Aldrich) and reversed transcribed using High-Capacity cDNA Reverse Transcription Kit (#4368814, Applied Biosystems, Foster City, CA, USA). The quantitative RT-PCR was conducted with universal probe system (Roche Life Science, Indianapolis, IN, USA) by using a QuantStudio™ 7 Flex Real-Time PCR System (Applied Biosystems) and was normalized by the expression of GAPDH.

[2] = tested on: H2O2-induced senescent human MSCs; experiment: H2O2-induced senescence in human MSCs; type: cell-based; details: GB 5 mg/L
Source text: C2C12 myoblast cell line (#CRL-1772TM, ATCC, Manassas, VA, USA) was expanded in high-glucose DMEM (#D7777, Sigma-Aldrich) with 10% FBS (#10270106, Gibco, Waltham, MA, USA) and 1% PSG (#10378016, Gibco). Passage 15-20 C2C12 was considered as multiple population doublings C2C12. Subconfluent C2C12 was differentiated to myotubes by myogenic induction medium, high-glucose DMEM (Sigma-Aldrich) containing 2% horse scrum (#16050122, Gibco) for 5 days. Aged bone-marrow monocytes were isolated from 20-month-old female C57BL/6 mice and then differentiated into macrophages in RPMI 1640 (#11875085, Gibco) supplemented with 10% FBS and 20 ng/ml M-CSF (#315-02, PeproTech, Cranbury, NJ, USA). Inflammatory MI macrophages were induced by 45 ng/mL IFN-γ (#485-MI-100, R&D Systems, Minneapolis, MN, USA) +100 ng/mL LPS (#L4391, Sigma-Aldrich). The indicative cells were then treated with or without GB (5 mg/L) for 48 hr. Commercial human mesenchymal stem cells (MSCs)40 were cultured in MSC maintenance medium consisting of IMDM, 10% FBS (#10270106, Gibco), 10 ng/ml bFGF (#233-FB, R&D Systems) and 1% PSG (#10378016, Gibco). To induce senescence, we treated cells at approximately 50% confluence with 200 μM H2O2 for 2 hr and then washed cells by PBS two times to remove H202. The cells were treated with GB (5 mg/L) or vehicle in fresh growth medium and subjected to the subsequent experiments at indicative time point.
Cell viability was measured by a CCK-8 kit (#ab228554, Abcam), and cell proliferation was determined by manually cell counting with hemocytometer. Senescence-associated β-galactosidase activity was determined by senescence-associated β-galactosidase staining kit (#9860, Cell Signaling Technology, Danvers, Massachusetts, USA) according to the manufacturer's instructions. Senescence-associated heterochromatin foci were visualized by DAPI staining.
as §1

[3] = tested on: GA muscle nuclei; experiment: Single-nucleus RNA sequencing of GA muscle; type: in vivo, mouse
Protocol: Single-nucleus isolation was performed as previously described 41. GA muscles were isolated from mice immediately following euthanasia. The muscles were minced and homogenized with homogenization buffer, 0.25M sucrose and 1% BSA diluted in Mg^2+-free, Ca^2+-free, RNase-free PBS (#AM9624, Invitrogen, Grand Island, NY, USA). The homogenates were incubated with 2.5% Triton-X100/RNase-free PBS at a 1:6 ratio for five minutes. After being filtered through a 100-um strainer, samples were centrifuged at 3000×g for 10 min at 4° C., resuspended in 2% BSA/RNase-free PBS, and then filtered through a 40-μm strainer again. Nuclei were labeled by DAPI with 0.2 U/μL RNase inhibitor (#N8080119, Thermo Fisher Scientific). Labeled nuclei were sorted by FACS Aria II Cell Sorter with 70 μm nozzle (BD Biosciences, San Jose, CA, USA) into 2% BSA/RNase-free PBS with RNase inhibitor. Isolated nuclei were observed by confocal fluorescent microscope (Leica TCS SP8, Wetzlar, Germany) to confirm integrity. To adjust the optimal concentration of nuclei for the 10X Chromium system, isolated nuclei were counted and diluted or concentrated by centrifugation at 250×g for 5 min at 4° C. Single-nucleus RNA-sequencing libraries were constructed by the Chromium Single Cell 3′ reagent kit v2 (10X Genomics, Pleasanton, CA, USA) per the manufacturer's protocol. Following the library preparation, the libraries were sequenced on the NovaSeq 6000 System (Illumina, San Diego, CA, USA) and the 10x Genomics cellranger count pipeline produced 6072 single-nucleus transcriptomes (2128, 2015 and 1929 transcriptomes for Young+Vehicle, Aged+Vehicle, and Aged+GB groups) with 25453, 27,741, and 34,120 reads per nuclei, and 1018, 923, and 1061 genes per nuclei for Young+Vehicle, Aged+Vehicle, and Aged+GB groups respectively.
The single-cell feature-barcode matrices from 10x Genomics cellranger count pipeline were imported into R version 4.1.3 and processed with Seurat 4.2.0. Next, ambient RNA was corrected by SoupX package43. […] Cell cycle genes were corrected for as described in Seurat's Cell-Cycle Scoring and Regression vignette. […] All remaining single-nuclei of each sample were then processed with dimension reduction and Louvain clustering as per Seurat's standard vignette. A combined Seurat object was also created following Seurat's integration protocol as described in Seurat's scRNA-seq integration using default parameters. Dimension reduction and clustering were also performed on the combined dataset as described above. Clusters were annotated using established cell type markers. […]

CC1C(=O)OC2C(O)C34C5CC(C(C)(C)C)C36C(OC(=O)C6O)OC4(C(=O)O5)C12O (centres unmarked) [GB, Ginkgolide B]
inflammatory cytokines in aged cells under culture conditions [1]: downregulated
cellular morphology [2]: restored the spindle sharp from flattened and enlarged morphology
expression of senescence markers [2]: reduced
proliferation [2]: promoted
senescence-associated heterochromatin foci and nucleus size [2]: reduced
senescence-associated β-galactosidase (SA-β-Gal) staining ([2]; p=0.0007): reduced
cellular viability (CCK8) ([2]; p=0.0026): promoted
reversal of aging-related changes in nucleus proportion ([3]; 8/14 nuclear types, GA muscle of aged mice): 57%
expression levels of Runx1 in myonucleus and number of aging-elicited Runx1+ Type 2b myonuclei ([3]; GA muscle of aged mice): reduced
aging-related changes in the numbers and proportion of myonuclei ([3]; covering all 5 myonucleus subclusters altered by aging): reversed
number of Ptprc+ immune cells in skeletal muscle ([3]; particularly M2 and M2-like proliferating macrophages): increased
